Measurements: patent US20220242851A1, “CRYSTAL FORM AND SALT OF QUINAZOLINE COMPOUND AND PREPARATION METHOD THEREOF” (SHENZHEN JINRUI FOUNDATION BIOTECH CO., LTD, priority 2019, published 2022)

What was measured:
[1] = system: subcutaneous xenograft tumor of human gastric cancer NCI-N87 cells; test: In vivo pharmacodynamics, NCI-N87 subcutaneous xenograft (Assay Example 3); parameters: species or system mouse
Procedure: Purpose of the assay: in vivo efficacy of the assay compound disclosed herein on subcutaneous xenograft tumor of human gastric cancer NCI-N87 cells in a BALB/c nude mouse model was evaluated.
Animals of the assay: female BALB/c nude mice, 6-8 weeks old, weighted 18-22 grams; supplier: Shanghai Ling Chang Biotechnology Co., Ltd.
Human gastric cancer NCI-N87 cells were cultured in monolayer in vitro. The culture conditions were RPMI-1640 medium plus 10% fetal bovine serum, 100 U/mL penicillin, 100 U/mL streptomycin and 2 mM glutamine, 37° C., 5% CO2. The passaging was performed by the conventional digestion with trypsin-EDTA twice a week. When the cell saturation was 80%-90%, the cells were collected, counted and inoculated.
0.2 mL (10×10^6) of NCI-N87 cells (PBS+Matrigel, 1:1) were inoculated subcutaneously on the right back of each nude mouse. When the average tumor volume reached 158 mm^3, administration to each group was started.
The assay compounds were formulated into 0.04 mg/mL and 0.08 mg/mL clear solution in the solvents of 10% NMP (N-methylpyrrolidone)+10% ethylene glycol stearate+80% water.
The assay index was to investigate whether tumor growth is inhibited, delayed or cured. Tumor diameter was measured twice a week with a vernier caliper. The calculation formula of tumor volume was: V=0.5a×b^2, wherein a and b represent the long and short diameters of tumor, respectively.
The antitumor efficacy of the compounds was evaluated by TGI (%) or tumor proliferation rate T/C (%). TGI (%) reflects tumor growth inhibition rate. […]
Statistical analysis included mean and standard error of mean (SEM) of tumor volume at each time point in each group (See Table 13 for specific data). […] The comparison between groups was analyzed by T-test, and the comparison among three or more groups was analyzed by one-way ANOVA. […]

[2] = biological target: T1, CYP1A2 (Homo sapiens, UniProt P05177); test: Inhibition of CYP enzyme activity in human liver microsome, CYP1A2; type: in vitro ADME; settings: microsomes
T1 construct: in the assay of CYP enzyme activity in human liver microsome; from tissue; host or cells: human liver microsome
T1 sequence (P05177 1-516): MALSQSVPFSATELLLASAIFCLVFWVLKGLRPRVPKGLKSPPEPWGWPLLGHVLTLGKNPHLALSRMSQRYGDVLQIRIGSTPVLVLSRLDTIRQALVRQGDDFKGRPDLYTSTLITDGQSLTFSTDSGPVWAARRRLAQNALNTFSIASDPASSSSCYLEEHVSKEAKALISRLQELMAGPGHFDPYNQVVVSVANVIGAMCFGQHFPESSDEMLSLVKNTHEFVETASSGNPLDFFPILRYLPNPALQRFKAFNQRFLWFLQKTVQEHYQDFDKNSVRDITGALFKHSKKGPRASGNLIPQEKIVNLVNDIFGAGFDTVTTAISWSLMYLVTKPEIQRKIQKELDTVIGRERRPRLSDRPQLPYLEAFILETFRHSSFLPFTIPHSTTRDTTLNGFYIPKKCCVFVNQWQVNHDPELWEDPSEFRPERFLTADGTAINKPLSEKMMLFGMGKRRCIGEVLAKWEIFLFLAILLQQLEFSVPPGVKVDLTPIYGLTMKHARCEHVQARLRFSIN
Excerpt: (§1) The results of the compound disclosed herein and the reference compound Poziotinib in the assay of CYP enzyme activity in human liver microsome were shown in the following table (Table 17).

[3] = biological target: HER2(ErbB2) (Homo sapiens, UniProt P04626); test: In vitro enzyme activity, HER2 (radiometric, Eurofins); type: biochemical; settings: conclusion
HER2(ErbB2), sequence (P04626 23-1255): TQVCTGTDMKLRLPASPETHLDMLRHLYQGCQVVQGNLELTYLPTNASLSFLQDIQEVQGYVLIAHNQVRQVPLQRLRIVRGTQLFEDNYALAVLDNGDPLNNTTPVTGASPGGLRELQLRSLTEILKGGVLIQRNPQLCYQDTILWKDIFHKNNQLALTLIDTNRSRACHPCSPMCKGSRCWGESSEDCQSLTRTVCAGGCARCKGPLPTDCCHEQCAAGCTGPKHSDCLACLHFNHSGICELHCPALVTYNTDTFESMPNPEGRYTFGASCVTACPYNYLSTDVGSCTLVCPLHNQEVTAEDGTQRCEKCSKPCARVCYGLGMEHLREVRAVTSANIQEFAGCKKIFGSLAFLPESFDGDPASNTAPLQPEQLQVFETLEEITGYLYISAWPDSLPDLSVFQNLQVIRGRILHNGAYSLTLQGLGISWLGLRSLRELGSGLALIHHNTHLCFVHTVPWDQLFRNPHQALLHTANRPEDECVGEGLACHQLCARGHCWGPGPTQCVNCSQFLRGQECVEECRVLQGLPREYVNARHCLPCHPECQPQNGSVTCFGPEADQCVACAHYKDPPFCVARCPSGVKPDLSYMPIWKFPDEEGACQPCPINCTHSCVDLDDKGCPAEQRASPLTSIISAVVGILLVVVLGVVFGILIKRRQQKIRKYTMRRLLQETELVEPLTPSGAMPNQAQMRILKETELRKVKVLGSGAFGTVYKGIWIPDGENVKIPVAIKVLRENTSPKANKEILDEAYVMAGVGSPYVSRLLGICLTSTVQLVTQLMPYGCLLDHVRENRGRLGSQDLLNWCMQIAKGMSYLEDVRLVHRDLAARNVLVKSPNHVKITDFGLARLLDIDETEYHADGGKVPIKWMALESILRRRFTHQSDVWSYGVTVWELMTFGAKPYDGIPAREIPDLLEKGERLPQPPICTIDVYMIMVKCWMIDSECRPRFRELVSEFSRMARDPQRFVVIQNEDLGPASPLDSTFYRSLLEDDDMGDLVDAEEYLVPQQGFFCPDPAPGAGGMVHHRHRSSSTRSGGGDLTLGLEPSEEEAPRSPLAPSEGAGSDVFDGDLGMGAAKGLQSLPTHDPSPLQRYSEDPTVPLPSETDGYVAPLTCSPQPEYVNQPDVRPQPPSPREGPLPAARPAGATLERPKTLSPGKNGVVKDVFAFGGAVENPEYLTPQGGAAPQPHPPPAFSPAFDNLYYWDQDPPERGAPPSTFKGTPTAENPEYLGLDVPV
Procedure: The purpose of this assay is to detect the in vitro inhibitory activity of compounds on HER1(ErbB1), HER2(ErbB2), and HER4(ErbB4). The enzymes used in this assay are human ErbB 1, ErbB2 and ErbB4. Eurofins Pharma Discovery Service provided the method for activity detection. Steps and method of the assay (96-well plate): A buffer solution of the assay compounds in a dilution of 5-fold (5 μL), polypeptide substrate poly(Glu, Tyr) (4:1) (2.5 μL), ErbB (4-20 ng, 2.5 μL), MnCl2 (50 mM, 1.25 μL), dH2O (3.75 μL), and [γ-^33P]ATP (10 μL) were added, and incubated at 30° C. for 10 minutes. The reaction was terminated by adding 3% phosphoric acid. 10 μL of the sample was taken and transferred to Filtermate A. The filter disc was washed 3 times with 75 mM phosphoric acid and once with methanol. The filter disc was transferred to a sealed plastic bag and the scintillation mixture (4 mL) was added. The intensity of the emitted photon was detected by a scintillation luminescence counter. The CPM (times/min) of the enzyme sample was compared with the CPM of the internal control sample. The level of photon intensity reflected the degree of the tyrosine kinase activity.

[4] = biological target: T2, CYP2C9 (Homo sapiens, UniProt P11712); test: Inhibition of CYP enzyme activity in human liver microsome, CYP2C9; type: in vitro ADME; settings: versus Poziotinib
T2 construct: in the assay of CYP enzyme activity in human liver microsome; from tissue; host or cells: human liver microsome
T2 sequence (P11712 whole entry): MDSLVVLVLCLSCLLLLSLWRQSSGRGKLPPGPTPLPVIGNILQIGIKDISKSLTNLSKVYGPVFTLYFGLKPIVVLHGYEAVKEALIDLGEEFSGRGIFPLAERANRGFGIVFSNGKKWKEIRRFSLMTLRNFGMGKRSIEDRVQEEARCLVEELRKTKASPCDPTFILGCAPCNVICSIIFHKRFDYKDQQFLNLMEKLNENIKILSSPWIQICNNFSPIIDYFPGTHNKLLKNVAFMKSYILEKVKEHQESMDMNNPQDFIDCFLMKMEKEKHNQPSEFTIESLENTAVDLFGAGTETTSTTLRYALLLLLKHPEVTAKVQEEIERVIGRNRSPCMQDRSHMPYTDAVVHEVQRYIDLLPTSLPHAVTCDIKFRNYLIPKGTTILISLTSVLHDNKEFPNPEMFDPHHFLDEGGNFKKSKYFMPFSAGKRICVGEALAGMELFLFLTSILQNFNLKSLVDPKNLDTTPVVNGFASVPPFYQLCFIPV
Excerpt: as §1

C=CC(=O)N1[C@@H]2CC[C@H]1C[C@H](Nc1cc3c(Nc4ccc(Cl)c(Cl)c4F)ncnc3cc1OC)C2 [Compound of formula (I)]
tumor inhibitory effect (in words) ([1]; 0.8 mg/kg, compared with the vehicle control group): significant tumor inhibitory effect
drug efficacy compared with Poziotinib (in words) ([1]; low-dose group (0.4 mg/kg)): comparable to or better than the reference compound Poziotinib
inhibitory activity on CYP1A2 (in words) [2]: no inhibitory activity
inhibitory activity on HER2 (in words) [3]: significant inhibitory activity
activity on CYP2C9, times better than the reference compound [4]: 2 times
